This is an account of results in patent publication US20240252488A1 (KOREA RESEARCH INSTITUTE OF CHEMICAL TECHNOLOGY, priority 2020, published 2024).

pKd: −log10 of the molar value.

In experiment [1] the target is T1, MLKL (Homo sapiens, UniProt Q8NB16).
T1 sequence (Q8NB16 1-471): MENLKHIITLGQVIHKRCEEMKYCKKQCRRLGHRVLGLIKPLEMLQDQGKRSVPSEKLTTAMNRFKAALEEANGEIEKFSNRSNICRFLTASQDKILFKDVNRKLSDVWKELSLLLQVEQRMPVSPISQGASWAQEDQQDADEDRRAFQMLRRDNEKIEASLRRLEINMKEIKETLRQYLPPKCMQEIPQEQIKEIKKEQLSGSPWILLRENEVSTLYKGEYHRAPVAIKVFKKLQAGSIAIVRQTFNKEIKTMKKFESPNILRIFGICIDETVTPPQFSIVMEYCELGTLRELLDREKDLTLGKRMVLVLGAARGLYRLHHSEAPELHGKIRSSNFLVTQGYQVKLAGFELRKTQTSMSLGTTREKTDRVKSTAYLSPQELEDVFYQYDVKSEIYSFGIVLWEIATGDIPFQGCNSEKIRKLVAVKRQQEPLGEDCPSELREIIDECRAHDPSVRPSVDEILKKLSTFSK
As to the kind of experiment: Measurement of binding affinity with MLKL receptor (competitive binding assay, Kd). On the set-up: made in house; host or cells: HEK 293 cell line (T7 phage in E. coli BL21-derived host is also described). The method in brief: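 Competitive displacement of MLKL, expressed in HEK 293 cells and DNA-tagged for qPCR, from immobilized ligand on biotin-blocked beads. Compounds were added from 111× DMSO stocks (final DMSO 0.9%). Kinase left in the eluates was quantified by qPCR to give Kd.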

For experiment [2], the target named is T1, MLKL. Briefly: MLKL degradation assay in HepG2 cell line (western blot). In kind it is cell-based. On the set-up: endogenous in cells; host or cells: HepG2 or HaCaT. The conditions noted are these: cell line not given; for Degradation assay (Degradation %) 1 μM: compound 1 μM; for Degradation assay (Degradation %) 10 μM: compound 10 μM. The method in brief: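 After treating HepG2 with test compounds (final 1 μM or 10 μM) for 20-24 h, we lysed cells, equalized protein by BCA and probed MLKL by overnight primary antibody at 4 °C followed by chemiluminescent detection.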
For orientation: A western blot detects proteins with antibodies after separation by electrophoresis.

Another experiment concerns FADD−/− Jurkat cells. As to the kind of experiment: Necroptosis inhibition assay, TNF-α-induced necroptosis (CellTiter-Glo 2.0). The conditions noted are these: TNF-α 15 ng/mL; for Necroptosis inhibition assay (Rescue %) 1 μM: compound 1 μM; for Necroptosis inhibition assay (Rescue %) 10 μM: compound 10 μM. The class given is cell-based, human. The method in brief:
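Necroptosis was triggered by TNF-α at 15 ng/mL final following 30 minutes of compound exposure (0.1, 1 or 10 μM final). Incubation ran 20 to 24 hours at 37° C under 5% CO2; cell ATP was then quantified by luminescence.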

A word on the pKd: it is the negative decadic logarithm of the Kd, by convention in mol/L. Low readings indicate a high Kd, high ones a low Kd.

For `Nc1ncc(-c2cnn(C3CCN(C(=O)C4CCN(C(=O)CNc5ccc6c(c5)C(=O)N(C5CCC(=O)NC5=O)C6=O)CC4)CC3)c2)nc1C(=O)OC(C(=O)Nc1ccc(F)cc1)c1ccccc1` (stereo not shown) [TDH-276, 2-((4-fluorophenyl)amino)-2-oxo-1-phenylethyl 3-amino-6-(1-(1-(1-((2-(2,6-dioxopiperidin-3-yl)-1,3-dioxoisoindolin-5-yl)glycyl)piperidine-4-carbonyl)piperidin-4-yl)-1H-pyrazol-4-yl)pyrazine-2-carboxylate], the negative-log Kd (pKd) on MLKL [1] was 8.44. On MLKL [2], the “Degradation assay (Degradation %) 1 μM” value is 78.62% and the “Degradation assay (Degradation %) 10 μM” value is on record as 75.61%. Besides, in the experiment on FADD−/− Jurkat cells, the “Necroptosis inhibition assay (Rescue %) 1 μM” value was 75.36% and the “Necroptosis inhibition assay (Rescue %) 10 μM” value came out at 70.49%.
For `Nc1ncc(-c2ccc(N3CCN(CC4CCN(C(=O)CNc5ccc6c(c5)C(=O)N(C5CCC(=O)NC5=O)C6=O)CC4)CC3)nc2)nc1C(=O)OC(C(=O)Nc1ccc(F)cc1)c1ccccc1` (stereo not shown) [TDH-233, 2-((4-fluorophenyl)amino)-2-oxo-1-phenylethyl 3-amino-6-(6-(4-((1-((2-(2,6-dioxopiperidin-3-yl)-1,3-dioxoisoindolin-5-yl)glycyl)piperidin-4-yl)methyl)piperazin-1-yl)pyridin-3-yl)pyrazine-2-carboxylate] the same measures were 6.80, 15.59%, 16.2%, 23.37% and 4.71%.
Taken in the same sequence, the figures for `Nc1ncc(-c2cnn([C@H]3CCN(CCOCCOCCNC(=O)COc4ccc5c(c4)C(=O)N(C4CCC(=O)NC4=O)C5=O)C3)c2)nc1C(=O)OC(C(=O)Nc1ccc(F)cc1)c1ccccc1` (stereo partly drawn) [TDH-266, 2-((4-fluorophenyl)amino)-2-oxo-1-phenylethyl 3-amino-6-(1-((3S)-1-(2-(2-(2-(2-((2-(2,6-dioxopiperidin-3-yl)-1,3-dioxoisoindolin-5-yl)oxy)acetamido)ethoxy)ethoxy)ethyl)pyrrolidin-3-yl)-1H-pyrazol-4-yl)pyrazine-2-carboxylate] were 8.22, 18.14%, 40.08%, 35.24% and 68.2%.
For `Nc1ncc(-c2cnn(C3CCN(CC4CN(C(=O)COc5cccc6c5C(=O)N(C5CCC(=O)NC5=O)C6=O)CCO4)CC3)c2)nc1C(=O)OC(C(=O)Nc1ccc(F)cc1)c1ccccc1` (stereo not shown) [TDH-308, 2-((4-fluorophenyl)amino)-2-oxo-1-phenylethyl 3-amino-6-(1-(1-((4-(2-((2-(2,6-dioxopiperidin-3-yl)-1,3-dioxoisoindolin-4-yl)oxy)acetyl)morpholin-2-yl)methyl)piperidin-4-yl)-1H-pyrazol-4-yl)pyrazine-2-carboxylate] the same measures were 8.77, 55.12%, 69.64%, 76.28% and 56.73%.
Turning to `Nc1ncc(-c2cnn(C3CCN(C(=O)CCC4CCN(C(=O)CCc5ccc6c(c5)C(=O)N(C5CCC(=O)NC5=O)C6=O)CC4)CC3)c2)nc1C(=O)O[C@@H](C(=O)Nc1ccc(F)cc1)c1ccccc1` (stereo partly drawn) [TDH-432, (R)-2-((4-fluorophenyl)amino)-2-oxo-1-phenylethyl 3-amino-6-(1-(1-(3-(1-(3-(2-(2,6-dioxopiperidin-3-yl)-1,3-dioxoisoindolin-5-yl)propanoyl)piperidin-4-yl)propanoyl)piperidin-4-yl)-1H-pyrazol-4-yl)pyrazine-2-carboxylate], the negative logarithm of the Kd (pKd) at MLKL [1] was 9.05. On MLKL [2], the “Degradation assay (Degradation %) 1 μM” value is listed as 89.17% and the “Degradation assay (Degradation %) 10 μM” value is given as 73.05%. In the experiment on FADD−/− Jurkat cells (FADD−/− Jurkat cells), the “Necroptosis inhibition assay (Rescue %) 1 μM” value was 12.47% and the “Necroptosis inhibition assay (Rescue %) 10 μM” value was found to be 0.07%.
Compound `Nc1ncc(-c2cnn(C3CCN(CCC4CCN(c5ccc6c(c5)C(=O)N(C5CCC(=O)NC5=O)C6=O)CC4)CC3)c2)nc1C(=O)O[C@@H](C(=O)Nc1ccc(F)cc1)c1ccccc1` (stereo partly drawn) [TDH-203, (R)-2-((4-fluorophenyl)amino)-2-oxo-1-phenylethyl 3-amino-6-(1-(1-(2-(1-(2-(2,6-dioxopiperidin-3-yl)-1,3-dioxoisoindolin-5-yl)piperidin-4-yl)ethyl)piperidin-4-yl)-1H-pyrazol-4-yl)pyrazine-2-carboxylate] gave a pKd on MLKL [1] of 8.49. On MLKL [2], the “Degradation assay (Degradation %) 1 μM” value is on record as 61.41% and the “Degradation assay (Degradation %) 10 μM” value is recorded as 34.74%. For the same compound, in the experiment on FADD−/− Jurkat cells, the “Necroptosis inhibition assay (Rescue %) 1 μM” value is 64.32% and the “Necroptosis inhibition assay (Rescue %) 10 μM” value is 40.46%.
`Nc1ncc(-c2cnn(C3CCN(C[C@H]4CC[C@H](CNC(=O)CNc5cccc6c5C(=O)N(C5CCC(=O)NC5=O)C6=O)CC4)CC3)c2)nc1C(=O)O[C@@H](C(=O)Nc1ccc(F)cc1)c1ccccc1` (stereo partly drawn) [TDH-347, (R)-2-((4-fluorophenyl)amino)-2-oxo-1-phenylethyl 3-amino-6-(1-(1-(((1r,4r)-4-((2-((2-(2,6-dioxopiperidin-3-yl)-1,3-dioxoisoindolin-4-yl)amino)acetamido)methyl)cyclohexyl)methyl)piperidin-4-yl)-1H-pyrazol-4-yl)pyrazine-2-carboxylate] showed a negative-log Kd (pKd) at MLKL [1] of 8.72. Further, at MLKL [2], the “Degradation assay (Degradation %) 1 μM” value is reported as 77.96% and the “Degradation assay (Degradation %) 10 μM” value worked out at 85.06%. For the same compound, in the experiment on FADD−/− Jurkat cells, the “Necroptosis inhibition assay (Rescue %) 1 μM” value amounted to 23.88% and the “Necroptosis inhibition assay (Rescue %) 10 μM” value was 12.87%.
The compound `Nc1ncc(-c2cnn(C3CCN(CCC4CCN(C(=O)CNc5ccc6nnn(C7CCC(=O)NC7=O)c(=O)c6c5)CC4)CC3)c2)nc1C(=O)OC(C(=O)Nc1ccc(F)cc1)c1ccccc1` (stereo not shown) [TDH-292, 2-((4-fluorophenyl)amino)-2-oxo-1-phenylethyl 3-amino-6-(1-(1-(2-(1-((3-(2,6-dioxopiperidin-3-yl)-4-oxo-3,4-dihydrobenzo[d][1,2,3]triazin-6-yl)glycyl)piperidin-4-yl)ethyl)piperidin-4-yl)-1H-pyrazol-4-yl)pyrazine-2-carboxylate] gave a negative logarithm of the Kd (pKd) on MLKL [1] of 8.64. On MLKL [2], the “Degradation assay (Degradation %) 1 μM” value is recorded as 79.96% and the “Degradation assay (Degradation %) 10 μM” value came out at 81.68%. In the experiment on FADD−/− Jurkat cells, the “Necroptosis inhibition assay (Rescue %) 1 μM” value worked out at 78.15% and the “Necroptosis inhibition assay (Rescue %) 10 μM” value came to 73.02%.
For `Nc1ncc(-c2cnn(C3CCN(CCOCCOCCNC(=O)CNc4cccc5c4C(=O)N(C4CCC(=O)NC4=O)C5=O)CC3)c2)nc1C(=O)O[C@@H](C(=O)Nc1ccc(F)cc1)c1ccccc1` (stereo partly drawn) [TDH-102, (R)-2-((4-fluorophenyl)amino)-2-oxo-1-phenylethyl 3-amino-6-(1-(1-(2-(2-(2-(2-((2-(2,6-dioxopiperidin-3-yl)-1,3-dioxoisoindolin-4-yl)amino)acetamido)ethoxy)ethoxy)ethyl)piperidin-4-yl)-1H-pyrazol-4-yl)pyrazine-2-carboxylate] the same measures were 8.68, 12.94%, 42.92%, 39.17% and 42.99%.
Regarding `Nc1ncc(-c2cnn(C3CCN(CC4CCN(CC5CCN(C(=O)COc6ccc7c(c6)C(=O)N(C6CCC(=O)NC6=O)C7=O)CC5)CC4)CC3)c2)nc1C(=O)O[C@@H](C(=O)Nc1ccc(F)cc1)c1ccccc1` (stereo partly drawn) [TDH-425, (R)-2-((4-fluorophenyl)amino)-2-oxo-1-phenylethyl 3-amino-6-(1-(1-((1-((1-(2-((2-(2,6-dioxopiperidin-3-yl)-1,3-dioxoisoindolin-5-yl)oxy)acetyl)piperidin-4-yl)methyl)piperidin-4-yl)methyl)piperidin-4-yl)-1H-pyrazol-4-yl)pyrazine-2-carboxylate], the negative logarithm of the Kd (pKd) at MLKL [1] is 9.47. In addition, at MLKL [2], the “Degradation assay (Degradation %) 1 μM” value worked out at 50.12% and the “Degradation assay (Degradation %) 10 μM” value was 88.68%. For the same compound, the “Necroptosis inhibition assay (Rescue %) 1 μM” value in the experiment on FADD−/− Jurkat cells (FADD−/− Jurkat cells) is 67.90%.
